# Laboratory results published in patent publication US5179093A, “Quinoline-diones” (Schering Corporation, priority 1991, dated 1993).
# Assays:
# HSV = settings: according to Haines et al.; cited from earlier work
# herpes virus [1] = settings: U.S. Pat. No. 4,757,088; cited from earlier work
# HSV-1 = settings: U.S. Pat. No. 4,757,088; cited from earlier work
# HSV-2 = settings: U.S. Pat. No. 4,757,088; cited from earlier work
# HSV-2, strain MS [2] = assay: Therapeutic guinea pig model of HSV infection (genital lesions); assay type: in vivo
# Description: The in vivo assessment of anti-HSV efficacy was determined in the prophylactic guinea pig model of HSV infection described by Stanberry et al (1982) The Journal of Infectious Diseases-vol. 146, No. 3, pages 397-404, which is hereby incorporated by reference. Dosing of guinea pigs was comprised of an initial treatment with test compound given 24 hours prior to virus infection and subsequent administration of the compound every eight hours (T.I.D.) for a total of 10 days. Test compounds were administered subcutaneously in 0.5% buffered methyl cellulose at a dose of 60 mg per kg body weight of the animal. Animals were monitored daily for the development of genital lesions and neurological symptomology, both of which were recorded and compared to the results obtained with parallel groups which received placebo or acyclovir treatment. Efficacy was evaluated for each compound by scoring the ability of the compound to ameliorate genital lesions produced by infection with HSV-2, strain MS, expressed as Activity Coefficients. The Activity Coefficients. were calculated as follows: The ability of a test compound to ameliorate lesions was plotted graphically with the number of days being on one axis, and the number of lesions being on the other axis. The area under the resultant curve was put in the numerator of a fraction with the denominator either being the area under a similar curve where placebo was employed(EXP/PL), or the area under the curve where acyclovir was employed (EXP/ACV). Thus (Exp/PL) is the ratio of test compound to placebo. (Exp/ACV) is the ratio of test compound to acyclovir. […] In the therapeutic guinea pig model, dosing of guinea pigs started 24 hours after they were infected with the virus. Subsequent administration of the test compound was done every eight hours for a total of ten days. Activity coefficients were calculated in the same manner as described for the prophylactic guinea pig model above.
# [3] = Compound toxicity assay: inhibition of HeLa cell translation (^3 H-LEU assay); assay type: cell-based; settings: human; HeLa cells, overnight (24 hours) treatment, tritiated leucine incorporation; read-out: CYTOTOXICITY ^3 H--LEU ASSAY IC50
# Description: HeLa cells were treated with inhibitory compound for 24 hours, after which levels of translational activity were assayed.
# For assay of translational activity, HeLa cultures were grown to 80% confluency in 96 well microtiter plates, treated with appropriate concentrations of compound in 2% EMEM during an overnight incubation at 37° C., then rinsed with HBSS and overlaid with […] of 2% EMEM containing 8 uCi of tritiated leucine (^3 H-LEU, 141 Ci/mMol, Amersham Corp., Arlington Heights Ill.). After 1 hr incubation at 36.5° C., the cells were rinsed twice with phosphate buffered saline (PBS) and lysed in 400 ul/well of 1×PBS, 0.5% sodium dodecyl sulphate (SDS). After a 10 minute incubation at 36.5° C., the contents of the well were transferred to a well in a Millititer HA microfiltration plate (Millipore Corp., Bedford, MA). The TCA insoluble proteins were precipitated onto the filter disc by a 10 minute fixation with 5% TCA, followed by filtration under vacuum and three 10 minute rinses with 95% ethanol. The filters were dried at room temperature, cut from the milltitier plate and transferred to scintillation vials. TCA precipitable counts were assayed in 5 ml of Scintisol (Isolab, Akron, Ohio). The inhibitory activity of a compound was plotted versus the concentration and an IC50 value (that concentration of the compound required to decrease cellular translational activity by 50%) was derived for each compound.
# HSV-2 (strain MS) = assay: Transient expression of beta galactosidase in transfected HeLa cells superinfected with HSV-2 (HSV-β-GAL assay); assay type: cell-based; settings: Human alphaherpesvirus 2, plasmid pON 245^ori-, moi=5 pfu/cell, 24 hours, read-out: ANTI-HSV ACTIVITY HSV-β-GAL ASSAY IC50
# Description: HeLa and Vero cell cultures were maintained in Eagles Minimal Essential Medium (EMEM) which was supplemented with glutamine, penicillin, streptomycin and 10% fetal calf serum (10% EMEM). Stock cultures of HSV-2 (strain MS available from ATCC VR-540) were grown in and harvested from Vero cells. Viral stocks were titered in Vero cells according to established procedures.
# Plasmid pON 245^ori- contains the promoter of the HSV-1 thymidine kinase (tk) gene located immediately 5' of the E. coli lac Z gene. In this arrangement, the tk promoter controls transcription from the bacterial gene in transient expression assays. Additionally, an SV40 polyadenylation signal is present at the 3' end of the lac Z gene to allow for the efficient translation of the mRNA in eucaryotic cells. The expression of beta galactosidase in a transient assay using pON 245^ori- is dependent upon superinfection of the transfected cells with HSV. […] For example see U.S. application Ser. No. 07/435,491 filed Sep. 5, 1989, the disclosure of which is incorporated herein by reference thereto.
# HeLa cells were seeded into 96 well microtiter plates and allowed to grow to 80% confluency (approximately 35,000 cells/well). One half microgram of plasmid pON 245^ori- DNA was introduced into the cells of each well by the […] precipitation technique (Grahman and Van der Eb, 1973). Four to six hours later, the cells were rinsed with hank's Balanced Salt Solution (HBSS), overlaid with 10% EMEM and incubated at 37° C. At 24 hrs post-transfection, cells were rinsed, overlaid with 10% EMEM again and re-incubated at 37° C. At 48 hrs post-transfection, cells were rinsed and overlaid with either EMEM containing 2% fetal calf serum (2% EMEM), 2% EMEM containing HSV-2 (strain MS, Multiplicity of Infection [moi]=5 pfu/cell) or 2% EMEM containing HSV-2 and the appropriate concentration of Schering compound to be tested. Twenty-four hours later, the cells were harvested and assayed for beta galactosidase activity as described below.
# All determinations of beta galactosidase activity were performed in 96 well microtiter plates. The intracellular level of beta galactosidase activity in each well was determined from cell lysates of the monolayer cultures. Aliquots were assayed by incubation in the presence of beta galactosidase substrate, 4-methylumbelliferyl-β-D-galactoside (MUG, 125 ug/ml, Sigma), for 2 hours. The generation of fluorescent product was quantified on a Microfluor microfluorimeter (Dynatech) after addition of 0.1M glycine, pH 10.3 (Spaete and Mocarski, 1985). The inhibitory activity of a compound was plotted versus the concentration and an IC50 value (the concentration of compound required to reduce beta glactosidase expression by 50%) was obtained for each compound tested.
# HSV-2, strain MS [4] = assay: Prophylactic guinea pig model of HSV infection (genital lesions); assay type: in vivo; settings: 60 mpk × 3/24 hr, sc
# Description: The in vivo assessment of anti-HSV efficacy was determined in the prophylactic guinea pig model of HSV infection described by Stanberry et al (1982) The Journal of Infectious Diseases-vol. 146, No. 3, pages 397-404, which is hereby incorporated by reference. Dosing of guinea pigs was comprised of an initial treatment with test compound given 24 hours prior to virus infection and subsequent administration of the compound every eight hours (T.I.D.) for a total of 10 days. Test compounds were administered subcutaneously in 0.5% buffered methyl cellulose at a dose of 60 mg per kg body weight of the animal. Animals were monitored daily for the development of genital lesions and neurological symptomology, both of which were recorded and compared to the results obtained with parallel groups which received placebo or acyclovir treatment. Efficacy was evaluated for each compound by scoring the ability of the compound to ameliorate genital lesions produced by infection with HSV-2, strain MS, expressed as Activity Coefficients. The Activity Coefficients. were calculated as follows: The ability of a test compound to ameliorate lesions was plotted graphically with the number of days being on one axis, and the number of lesions being on the other axis. […]
# herpes virus [5] = settings: added to lidocaine or lidocaine hydrochloride; Haines et al.; cited from earlier work
smiles,measurement,setting,value
"CCN(CC)CC(=O)Nc1c(C)cccc1C [lidocaine, 2-(diethylamino)-N-(2,6-dimethylphenyl)acetamide]",treatment of HSV oral and genital lesions in humans,HSV,particularly effective
same,ability to treat herpes virus infections of mammals,herpes virus [1],able to treat herpes virus infections of mammals
same,antiviral activity in cell culture against HSV-1,HSV-1,antiviral agent in cell culture against HSV-1 and HSV-2
same,antiviral activity in cell culture against HSV-2,HSV-2,antiviral agent in cell culture against HSV-1 and HSV-2
"Nc1nc2c(ncn2COCCO)c(=O)[nH]1 [ACV, 9-[(2-hydroxyethoxy)methyl]guanine, reference compound]",efficacy of acyclovir in the therapeutic study,"HSV-2, strain MS [2]; therapeutic study with Example 45",not efficaceous
"O=C1C(=CNCc2ccccc2)C(=O)N(Cc2ccccc2)c2ccccc21 [EX. 23, (E,Z)1-Benzyl-3-Benzylaminomethylene-Quinolin-2,4(1H)-Dione]",CC50 at 24 h,[3],> 100 µg/mL
same,IC50,HSV-2 (strain MS),5 µg/mL
same,Activity Coefficient (Exp/ACV),"HSV-2, strain MS [4]; lesion score AUC days 1-10, ratio test compound to acyclovir",4.05 ± 2.21
same,Activity Coefficient (Exp/PL),"HSV-2, strain MS [4]; lesion score AUC days 1-10, ratio test compound to placebo",0.67 ± 0.03
CC(C)(CO)[C@@H](O)C(=O)NCCCO [dexpanthenol],enhancement of antiviral activity,herpes virus [5],significantly enhances the antiviral activity
CC(C)(CO)[C@@H](O)C(=O)NCCC(=O)O [pantothenic acid],enhancement of antiviral activity,herpes virus [5],significantly enhances the antiviral activity
"O=C1C(=CNCc2ccccc2)C(=O)N(Cc2ccccc2)c2ccsc21 [EX. 45, (E,Z) 4-benzyl-6-benzylaminomethylene-thieno[3,2-b]pyridine-5,7(4H,6H)-dione]",CC50 at 24 h,[3],40 µg/mL
same,IC50,HSV-2 (strain MS),4 µg/mL
same,Activity Coefficient (Exp/PL),"HSV-2, strain MS [2]; 30 mpk × 3/24 hr, sc, therapeutic, lesion score AUC days 1-10, ratio test compound to placebo",0.71
same,Activity Coefficient (Exp/ACV),"HSV-2, strain MS [2]; 30 mpk × 3/24 hr, sc, therapeutic, lesion score AUC days 1-10, ratio to acyclovir, ACV was not efficaceous in this study",0.93
